Results from patent publication US9040524B2, “Antifungal 5,6-dihydro-4H-pyrrolo[1,2-a][1,4]-benzodiazepines and 6H-pyrrolo[1,2-a][1,4]benzodiazepines substituted with bicycle benzene derivatives” (JANSSEN PHARMACEUTICA NV, priority 2010, dated 2015).

Experiments:
Sporothrix schenkii = assay: Antifungal activity in vitro, resazurin growth inhibition screen: Sporothrix schenkii; type: cell-based; details: Sporothrix schenkii B62482; for IC50: read-out: Inf. A pIC50 (converted)
Summary of the method: (§1)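 Resazurin growth read-out; 100% = untreated culture, 0% = RPMI-MOPS only. Inoculum 10^3 cfu/well from cryopreserved stock diluted 1/1000. Compound 2- or 4-fold dilution series, top in-test conc 64 μM.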

Candida parapsilosis = assay: Antifungal activity in vitro, resazurin growth inhibition screen: Candida parapsilosis; type: cell-based; details: Candida parapsilosis B66126; for IC50: Lodderomyces parapsilosis, read-out: Inf. D pIC50 (converted)
Summary of the method: as §1

Trichophyton rubrum = assay: Antifungal activity in vitro, resazurin growth inhibition screen: Trichophyton rubrum; type: cell-based; details: Trichophyton rubrum B68183; for IC50: read-out: Inf. C pIC50 (converted)
Summary of the method: as §1

[1] = test system: Trichophyton mentagrophytes; assay: Antifungal activity in vitro, resazurin growth inhibition screen: Trichophyton mentagrophytes; type: cell-based; details: Trichophyton mentagrophytes B70554; for IC50: read-out: Inf. G pIC50 (converted)
Summary of the method: as §1

Microsporum canis = assay: Antifungal activity in vitro, resazurin growth inhibition screen: Microsporum canis; type: cell-based; details: Microsporum canis B68128; for IC50: read-out: Inf. B pIC50 (converted)
Summary of the method: as §1

Aspergillus fumigatus = assay: Antifungal activity in vitro, resazurin growth inhibition screen: Aspergillus fumigatus; type: cell-based; details: Aspergillus fumigatus B42928; for IC50: read-out: Inf. E pIC50 (converted)
Summary of the method: as §1

Cryptococcus neoformans = assay: Antifungal activity in vitro, resazurin growth inhibition screen: Cryptococcus neoformans; type: cell-based; details: Cryptococcus neoformans B66663; for IC50: read-out: Inf. F pIC50 (converted)
Summary of the method: as §1

Rhizopus oryzae = assay: Antifungal activity in vitro, resazurin growth inhibition screen: Rhizopus oryzae; type: cell-based; details: Rhizopus oryzae IHEM5223
Method: (§2) The standard susceptibility screen was performed in 96-well plates (U-bottom, Greiner Bio-One). Serial dilutions (2-fold or 4-fold) of 20 mM compound stock solutions were made in 100% DMSO, followed by an intermediate dilution step in water. These serial dilutions (10 μl) were then spotted onto test-plates that could be stored in the dark at 4° C. for a maximum period of 2 weeks. An adequate broad dose-range was included with 64 μM as the highest in-test concentration. […] The different fungal species/isolates (Table 3a) were cryopreserved and 1/1000 diluted in medium just prior to use. A standard inoculum of 200 μl containing 10^3 colony-forming unit (cfu) was then added to each well. A positive control (100% growth=fungal culture without antifungal) and a negative control (0% growth=RPMI-MOPS medium) were included on each plate.

Scedosporium apiospermum = assay: Antifungal activity in vitro, resazurin growth inhibition screen: Scedosporium apiospermum; type: cell-based; details: Scedosporium apiospermum IHEM3817
Method: as §2

Scedosporium prolificans = assay: Antifungal activity in vitro, resazurin growth inhibition screen: Scedosporium prolificans; type: cell-based; details: Scedosporium prolificans IHEM21157
Method: as §2

Rhizomucor miehei = assay: Antifungal activity in vitro, resazurin growth inhibition screen: Rhizomucor miehei; type: cell-based; details: Rhizomucor miehei IHEM13391
Method: as §2

| SMILES | IC50 (Sporothrix schenkii) | IC50 (Candida parapsilosis) | IC50 (Trichophyton rubrum) | IC50 [1] | IC50 (Microsporum canis) | IC50 (Aspergillus fumigatus) | melting point | IC50 (Cryptococcus neoformans) | Inf. A pIC50 (Sporothrix schenkii) | Inf. J pIC50 (Rhizopus oryzae) | Inf. D pIC50 (Candida parapsilosis) | Inf. C pIC50 (Trichophyton rubrum) | Inf. G pIC50 [1] | Inf. B pIC50 (Microsporum canis) | Inf. E pIC50 (Aspergillus fumigatus) | Inf. H pIC50 (Scedosporium apiospermum) | Inf. I pIC50 (Scedosporium prolificans) | Inf. K pIC50 (Rhizomucor miehei) | Inf. F pIC50 (Cryptococcus neoformans) | other results |
| --- | --- | --- | --- | --- | --- | --- | --- | --- | --- | --- | --- | --- | --- | --- | --- | --- | --- | --- | --- | --- |
| CN1C(=O)C(C)(C)c2cc(C3=NCc4c(Cl)cccc4-n4cccc43)ccc21 [Compound 1, 5-(7-chloro-6H-pyrrolo[1,2-a][1,4]benzodiazepin-4-yl)-1,3-dihydro-1,3,3-trimethyl-2H-indol-2-one] | > 64.6 µM | > 64.6 µM | 7.94 µM | 26.3 µM | 9.33 µM | 2.24 µM | 233.7 to 235.1 °C | 4.27 µM | – | – | – | – | – | – | – | – | – | – | – | – |
| Clc1ccc2c(c1Cl)CN=C(c1ccc3c(c1)CCC3)c1cccn1-2 [Compound 22, 7,8-dichloro-4-(2,3-dihydro-1H-inden-5-yl)-6H-pyrrolo[1,2-a][1,4]benzodiazepine] | > 32.4 µM | > 32.4 µM | 1 µM | – | 3.02 µM | 14.1 µM | 199.3 to 201.6 °C | 2.51 µM | – | – | – | – | – | – | – | – | – | – | – | – |
| Clc1ccc(Cl)c2c1CN=C(c1ccc3c(c1)CCC3)c1cccn1-2 [Compound 24, 7,10-dichloro-4-(2,3-dihydro-1H-inden-5-yl)-6H-pyrrolo[1,2-a][1,4]benzodiazepine] | > 32.4 µM | > 32.4 µM | 3.98 µM | 6.03 µM | 8.91 µM | > 32.4 µM | 194 to 194.2 °C | > 32.4 µM | – | – | – | – | – | – | – | – | – | – | – | – |
| Clc1cccc2c1-n1cccc1C(c1ccc3c(c1)CCCO3)=NC2 [Compound 43, 10-chloro-4-(3,4-dihydro-2H-1-benzopyran-6-yl)-6H-pyrrolo[1,2-a][1,4]benzo-diazepine] | 0.912 µM | 4.37 µM | 0.129 µM | 0.219 µM | 0.158 µM | 0.141 µM | 103.7 °C | 0.209 µM | – | – | – | – | – | – | – | – | – | – | – | – |
| O=C1CCc2ccc(C3=NCc4c(Cl)cccc4-n4cccc43)cc21 [Compound 55, 6-(7-chloro-6H-pyrrolo[1,2-a][1,4]benzodiazepin-4-yl)-2,3-dihydro-1H-inden-1-one] | > 64.6 µM | > 64.6 µM | 1.95 µM | 25.1 µM | 3.89 µM | > 64.6 µM | 214 to 217 °C | > 64.6 µM | – | – | – | – | – | – | – | – | – | – | – | – |
| O=C1CCCc2cc(C3=NCc4ccc(Cl)cc4-n4cccc43)ccc21 [Compound 60, 6-(9-chloro-6H-pyrrolo[1,2-a][1,4]benzodiazepin-4-yl)-3,4-dihydro-1 (2H)-naphthalenone] | 30.2 µM | 3.63 µM | > 64.6 µM | > 64.6 µM | > 64.6 µM | > 64.6 µM | > 280 °C | 7.08 µM | – | – | – | – | – | – | – | – | – | – | – | – |
| FC1(F)Oc2ccc(C3=NCc4c(Cl)cccc4-n4cccc43)cc2O1 [Compound 74, 7-chloro-4-(2,2-difluoro-1,3-benzodioxol-5-yl)-6H-pyrrolo[1,2-a][1,4]benzo-diazepine] | – | – | – | – | – | – | – | – | <4.19 | <4.19 | <4.19 | 7.39 | 6.58 | 6.87 | 7.08 | 5.5 | 7.05 | <4.19 | <4.19 | – |
| FC1(F)Oc2ccc(C3=NCc4ccc(Cl)cc4-n4cccc43)cc2O1 [Compound 75, 9-chloro-4-(2,2-difluoro-1,3-benzodioxol-5-yl)-6H-pyrrolo[1,2-a][1,4]benzo-diazepine] | – | – | – | – | – | – | – | – | 4.85 | <4.19 | 5.09 | 6.85 | 6.42 | 5.74 | 6.24 | <4.19 | <4.19 | <4.19 | 5.84 | – |
| FC1(F)Oc2ccc(C3=NCc4cccc(Cl)c4-n4cccc43)cc2O1 [Compound 76, 10-chloro-4-(2,2-difluoro-1,3-benzodioxol-5-yl)-6H-pyrrolo[1,2-a][1,4]benzo-diazepine] | – | – | – | – | – | – | – | – | 5.69 | 4.57 | 5.18 | 6.82 | 6.38 | 6.70 | 5.94 | 5.13 | 5.04 | 4.98 | 5.82 | – |
| Fc1cccc2c1CN=C(c1ccc3c(c1)OC(F)(F)O3)c1cccn1-2 [Compound 77, 4-(2,2-difluoro-1,3-benzodioxol-5-yl)-7-fluoro-6H-pyrrolo[1,2-a][1,4]benzo-diazepine] | 3.55 µM | 3.39 µM | 0.0195 µM | 0.115 µM | 0.135 µM | 0.0562 µM | – | 5.37 µM | – | – | – | – | – | – | – | – | – | – | – | IC50 (Rhizopus oryzae; Rhizopus arrhizus, read-out: Inf. J pIC50 (converted)): 12 µM; IC50 (Scedosporium apiospermum; read-out: Inf. H pIC50 (converted)): 22.4 µM; IC50 (Scedosporium prolificans; Lomentospora prolificans, read-out: Inf. I pIC50 (converted)): 1.74 µM; IC50 (Rhizomucor miehei; read-out: Inf. K pIC50 (converted)): > 64.6 µM |
| Fc1cc(F)c2c(c1)-n1cccc1C(c1ccc3c(c1)OC(F)(F)O3)=NC2 [Compound 78, 4-(2,2-difluoro-1,3-benzodioxol-5-yl)-7,9-difluoro-6H-pyrrolo[1,2-a][1,4]benzo-diazepine] | – | – | – | – | – | – | – | – | 5.28 | <4.19 | 5.64 | 6.85 | 6.24 | 6.26 | 6.44 | 4.19 | 5.98 | <4.19 | <4.19 | – |
| FC1(F)Oc2ccc(C3=NCc4c(Cl)cc(Cl)cc4-n4cccc43)cc2O1 [Compound 79, 7,9-dichloro-4-(2,2-difluoro-1,3-benzodioxol-5-yl)-6H-pyrrolo[1,2-a][1,4]benzo-diazepine] | – | – | – | – | – | – | – | – | 4.90 | <4.19 | 5.62 | 6.29 | 5.79 | 6.28 | 5.71 | 5.72 | 5.98 | <4.19 | 5.60 | – |
| CN1CCc2cc(C3=NCc4c(Cl)cccc4-n4cccc43)ccc21 [Compound 83, 7-chloro-4-(2,3-dihydro-1-methyl-1H-indol-5-yl)-6H-pyrrolo[1,2-a][1,4]benzo-diazepine] | – | – | – | – | – | – | – | – | 5.14 | <4.19 | 5.28 | 5.71 | 5.06 | 5.66 | 5.89 | 4.76 | 5.85 | <4.19 | 5.57 | – |
